Results as given in patent US10420341B2, “Herbicidal phenylpyrimidines” (BASF SE, priority 2015, dated 2019).

Key:
ALOMY = assay: greenhouse post-emergence herbicidal test; type: in vivo, Alopercurus myosuroides; conditions: post-emergence method, scale from 0 to 100
In short: (§1)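 Post-emergence; plants at 3–15 cm, treated with aqueous suspension/emulsion of compound. 10–25 °C or 20–35 °C per species, 2–4 wk. Score 0 (no damage) to 100 (aerial parts destroyed).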

ECHCG [1] = assay: greenhouse pre-emergence herbicidal test; type: in vivo, Echinocloa crus-galli; conditions: pre-emergence method, scale from 0 to 100
In short: (§2)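 Greenhouse plants receive the aqueous active ingredient straight after sowing, before emergence. Response is scored from 0 (no damage) to 100 (no emergence or complete kill of aerial parts) over a 2-4 week period.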

POLCO = assay: greenhouse post-emergence herbicidal test; type: in vivo, Polygonum convolvulus; conditions: post-emergence method, application rate 500 g/ha, scale from 0 to 100
Source text: (§3) The seeds of the test plants were sown separately for each species. For the post-emergence treatment, the test plants were first grown to a height of 3 to 15 cm, depending on the plant habit, and only then treated with the active ingredients which had been suspended or emulsified in water. For this purpose, the test plants were either sown directly and grown in the same containers, or they were first grown separately as seedlings and transplanted into the test containers a few days prior to treatment. Depending on the species, the plants were kept at 10-25° C. or 20-35° C., respectively. The test period extended over 2 to 4 weeks. During this time, the plants were tended, and their response to the individual treatments was evaluated. Evaluation was carried out using a scale from 0 to 100. 100 means no emergence of the plants, or complete destruction of at least the aerial moieties, and 0 means no damage, or normal course of growth. […] The plants used in the greenhouse experiments were of the following species: [table]

APESV = assay: greenhouse pre-emergence herbicidal test; type: in vivo, Apera spica-venti; conditions: pre-emergence method, scale from 0 to 100
In short: as §2

AMARE = assay: greenhouse post-emergence herbicidal test; type: in vivo, Amaranthus retroflexus; conditions: post-emergence method, application rate 500 g/ha, scale from 0 to 100
Source text: as §3

ABUTH = assay: greenhouse post-emergence herbicidal test; type: in vivo, Abutilon theophrasti; conditions: post-emergence method, scale from 0 to 100
Source text: as §3

AVEFA = assay: greenhouse post-emergence herbicidal test; type: in vivo, Avena fatua; conditions: post-emergence method, application rate 500 g/ha, scale from 0 to 100
In short: as §1

ECHCG [2] = assay: greenhouse post-emergence herbicidal test; type: in vivo, Echinocloa crus-galli; conditions: post-emergence method, scale from 0 to 100
In short: as §1

Row | SMILES | herbicidal activity against ECHCG (ECHCG [1]; application rate 500 g/ha) | herbicidal activity against POLCO (POLCO) | herbicidal activity against APESV (APESV; application rate 500 g/ha) | herbicidal activity against ABUTH (ABUTH; application rate 1000 g/ha) | herbicidal activity against APESV (APESV; application rate 1000 g/ha) | also measured
1 | Cc1ccc(-c2cnc(C3CC3)nc2C(=O)O)c(C)c1 [example 168] | very good (a very good herbicidal activity is given at values of at least 85) | very good (a very good herbicidal activity is given at values of at least 85) | very good (a very good herbicidal activity is given at values of at least 85) |  |  | herbicidal activity against ALOMY (ALOMY; application rate 500 g/ha): good (A good herbicidal activity is given at values of at least 70)
2 | COC(=O)c1nc(C2CC2)ncc1-c1cc(Cl)ccc1Cl [example 204] |  | very good (a very good herbicidal activity is given at values of at least 85) | very good (a very good herbicidal activity is given at values of at least 85) |  |  | herbicidal activity against AMARE (AMARE): very good (a very good herbicidal activity is given at values of at least 85)
3 | CCCOc1ccc(C(F)(F)F)cc1-c1cnc(C2CC2)nc1C(=O)O [example 306] |  |  |  | very good (a very good herbicidal activity is given at values of at least 85) |  | 
4 | COC(=O)c1nc(C2CC2)ncc1-c1ccccc1C(F)F [example 308] | very good (a very good herbicidal activity is given at values of at least 85) | very good (a very good herbicidal activity is given at values of at least 85) | very good (a very good herbicidal activity is given at values of at least 85) |  |  | herbicidal activity against ALOMY (ALOMY; application rate 500 g/ha): very good (a very good herbicidal activity is given at values of at least 85); herbicidal activity against AVEFA (AVEFA): very good (a very good herbicidal activity is given at values of at least 85)
5 | COc1ccccc1-c1cnc(C(C)C)nc1C(=O)O [example 35] |  |  |  | very good (a very good herbicidal activity is given at values of at least 85) | very good (a very good herbicidal activity is given at values of at least 85) | herbicidal activity against ECHCG (ECHCG [1]; application rate 1000 g/ha): very good (a very good herbicidal activity is given at values of at least 85)
6 | Cc1ccccc1-c1cnc(CC(C)C)nc1C(=O)O [example 40] |  |  |  | very good (a very good herbicidal activity is given at values of at least 85) | good (A good herbicidal activity is given at values of at least 70) | herbicidal activity against ECHCG (ECHCG [2]; application rate 1000 g/ha): good (A good herbicidal activity is given at values of at least 70)
7 | Cc1ccc(C)c(-c2cnc(N(C)C)nc2C(=O)O)c1 [example 129] | good (A good herbicidal activity is given at values of at least 70) |  | very good (a very good herbicidal activity is given at values of at least 85) |  |  | herbicidal activity against ABUTH (ABUTH; application rate 500 g/ha): good (A good herbicidal activity is given at values of at least 70)
8 | COC(=O)c1nc(OC)ncc1-c1ccccc1Cl [example 61] | very good (a very good herbicidal activity is given at values of at least 85) | very good (a very good herbicidal activity is given at values of at least 85) | very good (a very good herbicidal activity is given at values of at least 85) |  |  | herbicidal activity against ALOMY (ALOMY; application rate 500 g/ha): good (A good herbicidal activity is given at values of at least 70); herbicidal activity against ECHCG (ECHCG [2]; application rate 500 g/ha): good (A good herbicidal activity is given at values of at least 70)
9 | CCc1ncc(-c2ccccc2OC)c(C(=O)O)n1 [example 16] |  |  |  |  |  | herbicidal activity against ABUTH (ABUTH; application rate 2000 g/ha): very good (a very good herbicidal activity is given at values of at least 85); herbicidal activity against ECHCG (ECHCG [1]; application rate 2000 g/ha): very good (a very good herbicidal activity is given at values of at least 85); herbicidal activity against APESV (APESV; application rate 2000 g/ha): very good (a very good herbicidal activity is given at values of at least 85)
10 | O=C(O)c1nc(C2CC2)ncc1-c1ccccc1SC(F)(F)F [example 310] |  |  |  | good (A good herbicidal activity is given at values of at least 70) |  | 
11 | COc1cc(C)c(-c2cnc(C3CC3)nc2C(=O)O)cc1C [example 169] |  |  |  | very good (a very good herbicidal activity is given at values of at least 85) | very good (a very good herbicidal activity is given at values of at least 85) | herbicidal activity against ECHCG (ECHCG [2]; application rate 1000 g/ha): good (A good herbicidal activity is given at values of at least 70)
12 | COC(=O)c1nc(C2CC2)ncc1-c1cc(C)c(OC)cc1C [example 232] |  |  |  | very good (a very good herbicidal activity is given at values of at least 85) | very good (a very good herbicidal activity is given at values of at least 85) | herbicidal activity against ECHCG (ECHCG [2]; application rate 1000 g/ha): very good (a very good herbicidal activity is given at values of at least 85); herbicidal activity against ECHCG (ECHCG [1]; application rate 1000 g/ha): very good (a very good herbicidal activity is given at values of at least 85)
13 | O=C(O)c1nc(C2CC2)ncc1-c1ccccc1C(F)F [example 309] | very good (a very good herbicidal activity is given at values of at least 85) | very good (a very good herbicidal activity is given at values of at least 85) | very good (a very good herbicidal activity is given at values of at least 85) |  |  | herbicidal activity against ALOMY (ALOMY; application rate 500 g/ha): very good (a very good herbicidal activity is given at values of at least 85); herbicidal activity against AVEFA (AVEFA): very good (a very good herbicidal activity is given at values of at least 85)
14 | O=C(O)c1ccccc1-c1cnc(C2CC2)nc1C(=O)O [example 318] |  |  |  |  |  | herbicidal activity against ABUTH (ABUTH; application rate 2000 g/ha): very good (a very good herbicidal activity is given at values of at least 85); herbicidal activity against ECHCG (ECHCG [1]; application rate 2000 g/ha): very good (a very good herbicidal activity is given at values of at least 85)
15 | COC(=O)c1nc(C2CCC2)ncc1-c1ccccc1Cl [example 277] |  |  | good (A good herbicidal activity is given at values of at least 70) |  |  | herbicidal activity against ABUTH (ABUTH; application rate 500 g/ha): very good (a very good herbicidal activity is given at values of at least 85)
16 | COc1ncc(-c2ccccc2Cl)c(C(=O)O)n1 [example 51] | very good (a very good herbicidal activity is given at values of at least 85) | very good (a very good herbicidal activity is given at values of at least 85) | very good (a very good herbicidal activity is given at values of at least 85) |  |  | herbicidal activity against ECHCG (ECHCG [2]; application rate 500 g/ha): good (A good herbicidal activity is given at values of at least 70); herbicidal activity against AVEFA (AVEFA): good (A good herbicidal activity is given at values of at least 70)
17 | CCC(C)c1ncc(-c2ccccc2C)c(C(=O)O)n1 (centres unmarked) [example 41] |  |  |  | very good (a very good herbicidal activity is given at values of at least 85) | very good (a very good herbicidal activity is given at values of at least 85) | herbicidal activity against ECHCG (ECHCG [2]; application rate 1000 g/ha): good (A good herbicidal activity is given at values of at least 70)
18 | O=C(O)c1nc(C2CC2)ncc1-c1cccc(F)c1Cl [example 150] |  |  |  | very good (a very good herbicidal activity is given at values of at least 85) | very good (a very good herbicidal activity is given at values of at least 85) | herbicidal activity against ALOMY (ALOMY; application rate 1000 g/ha): very good (a very good herbicidal activity is given at values of at least 85); herbicidal activity against ECHCG (ECHCG [1]; application rate 1000 g/ha): very good (a very good herbicidal activity is given at values of at least 85)
19 | Cc1ccccc1-c1cnc(C2CCC2)nc1C(=O)O [example 263] |  |  |  | very good (a very good herbicidal activity is given at values of at least 85) | good (A good herbicidal activity is given at values of at least 70) | herbicidal activity against ECHCG (ECHCG [2]; application rate 1000 g/ha): very good (a very good herbicidal activity is given at values of at least 85)
